Measurements taken from patent publication US9895352B2, “Indolinone compounds and uses thereof” (Oncternal Therapeutics, Inc., priority 2014, dated 2018).
Read-outs that look alike come from different tables or passages of the source.

Columns and labels:
[1] = Pharmacokinetics after IV and oral administration; format: in vivo; conditions: BALB/c mice or Sprague Dawley rats; for Cmax / half-life / Tmax / bioavailability: plasma; for Tmax: read-out: Tmax
Method: Certain pharmacokinetics parameters were determined for certain compounds in vivo for intravenous and oral administration. Briefly, compounds were formulated and administered using IV bolus, continuous IV infusion or oral administration. Blood was collected at multiple time points over 24 hours and processed into plasma. Plasma was analyses for parent using LC/MS/MS. Certain parameters for certain compounds were obtained in duplicate.

[2] = Half-life in human hepatocytes; format: in vitro ADME; conditions: read-out: Half life of cmpds
Method: (§1) In another study, metabolism of compounds in hepatocytes from various species was examined. Hepatocytes were contacted with a compound, and the half-life of the compound was determined.

[3] = Half-life in mouse hepatocytes; format: in vitro ADME; conditions: read-out: Half life of cmpds
Method: as §1

[4] = human liver microsome, no cofactor, 60 min
[5] = in vitro; conditions: rat, liver microsomes
[6] = Half-life in dog hepatocytes; format: in vitro ADME; conditions: read-out: Half life of cmpds
Method: as §1

[7] = in vitro; conditions: dog, liver microsomes
[8] = in vitro; conditions: human liver microsomes
[9] = in vitro; conditions: mouse, liver microsomes
[10] = test system: SKES cells (Ewing Sarcoma cell line); assay: CCK-8 tetrazolium tumor cell growth inhibition, SKES; format: cell-based; conditions: Homo sapiens
[11] = Half-life in rat hepatocytes; format: in vitro ADME; conditions: read-out: Half life of cmpds
Method: as §1

[12] = iv, 5 mg/kg, 5 mg/kg IV, captisol
[13] = po, 20 mg/kg, 20 mg/kg po, labrasol/tetraglycol 9:1
[14] = po, 20 mg/kg, 20 mg/kg po, labrasol:tetraglycol:water 72:8:20

## O=C(CC1(O)C(=O)Nc2c(Cl)ccc(Cl)c21)c1ccc(N2CCCC2)cc1 (single isomer, unassigned) [Cmpd 18, 4,7-Dichloro-3-hydroxy-3-(2-oxo-2-(4-(pyrrolidin-1-yl)phenyl)ethyl)indolin-2-one]
[1]; 5 mg/kg IV, captisol
  AUC: 3738 h * (ng/mL)
[1]; 20 mg/kg po, labrasol/tetraglycol 9:1
  AUC: 7497 h * (ng/mL)
[1]; 20 mg/kg po, labrasol:tetraglycol:water 72:8:20
  AUC: 11029 h * (ng/mL)
[1]; [12]
  Cmax: 14300 ng/mL
  half-life: 48 min
  Tmax: 0.033 h
[1]; [13]
  Cmax: 3220 ng/mL
  bioavailability: 50%
  half-life: 84 min
  Tmax: 1 h
[1]; [14]
  Cmax: 6420 ng/mL
  bioavailability: 74%
  half-life: 54 min
  Tmax: 1 h
[2]
  half-life: 63.6 min
[3]
  half-life: 60 min
[4]
  Remaining (NCF = 60 min): 99.4%
[5]
  half-life: 1.3 min
[6]
  half-life: 30.6 min
[7]
  half-life: 24.1 min
[8]
  half-life: 23 min
[9]
  half-life: 9.6 min
[10]; 72 h, SKES cells, 3 days with compound, CCK-8 (TABLE 3)
  IC50: < 5 µM
[10]; SKES, ES, EWS-FLI1 Type 2
  IC50: < 5 µM
[11]
  half-life: 18.8 min
